Values of other authors in patent publication US20110251275A1, “OMEGA-3 FATTY ACIDS FOR REDUCTION OF LP-PLA2 LEVELS” (priority 2006, published 2011).

System: Lp-PLA2
Details: for reduction of Lp-PLA2: Tsimihodimos et al. 2002, patients treated

SMILES | reduced Lp-PLA2 levels (O'Donoghue et al. 2006) | reduction of Lp-PLA2
CC(C)c1c(C(=O)Nc2ccccc2)c(-c2ccccc2)c(-c2ccc(F)cc2)n1CC[C@@H](O)C[C@@H](O)CC(=O)O [atorvastatin] | 20% | 28-42%
CC(C)OC(=O)C(C)(C)Oc1ccc(C(=O)c2ccc(Cl)cc2)cc1 [fenofibrate, 2-[4-(4-chlorobenzoyl)phenoxy]-2-methyl-propanoic acid, 1-methylethyl ester] | – | 22-28%
